Data published in article PMC6261661 (ACS chemical neuroscience, 2018).
“And” between values parts separate entries of the source, which are not always exact repeats. Identical values can stand only once. “Also recorded” adds a separate entry of the source. Like-named read-outs stand apart in the source and are kept apart here. Square brackets hold non-standard residues; d marks the D form. Peptide text beside a SMILES is read from it. Bip = N[C@@H](Cc1ccc(-c2ccccc2)cc1)C(=O)O; dBip = N[C@H](Cc1ccc(-c2ccccc2)cc1)C(=O)O; dPhe(4-I) = N[C@H](Cc1ccc(I)cc1)C(=O)O; 1Nal = N[C@@H](Cc1cccc2ccccc12)C(=O)O; d2Nal = N[C@H](Cc1ccc2ccccc2c1)C(=O)O; Bta = N[C@@H](Cc1csc2ccccc12)C(=O)O; Tic = O=C(O)[C@@H]1Cc2ccccc2CN1; 2Thi = N[C@@H](Cc1cccs1)C(=O)O

Experiments:
mMC1R [1] = target: T1, mMC1R (Mus musculus, UniProt Q01727); test: CRE/β-galactosidase reporter gene bioassay, agonist activity at mMC1R; format: cell-based; settings: for EC50: mMC1R EC50, agonist, HEK-293 cells stably expressing receptor, ±SEM
T1 sequence (Q01727 whole entry): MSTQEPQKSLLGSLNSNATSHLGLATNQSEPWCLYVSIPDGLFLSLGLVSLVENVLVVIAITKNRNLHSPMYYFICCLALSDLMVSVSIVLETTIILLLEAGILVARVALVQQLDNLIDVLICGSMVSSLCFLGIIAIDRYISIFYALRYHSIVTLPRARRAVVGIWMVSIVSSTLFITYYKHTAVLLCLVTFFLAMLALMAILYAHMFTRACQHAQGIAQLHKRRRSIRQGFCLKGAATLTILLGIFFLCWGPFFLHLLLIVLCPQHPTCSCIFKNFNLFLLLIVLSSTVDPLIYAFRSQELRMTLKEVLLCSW

mMC4R [2] = target: T2, mMC4R (Mus musculus, UniProt P56450); test: Antagonist Schild analysis against agonist MTII at mMC4R; format: cell-based; settings: for mMC4R pharmacology class printed in Fold Diff. column (Ant, SA): Ant = antagonist, SA = some stimulatory activity at 100 µM
T2 sequence (P56450 whole entry): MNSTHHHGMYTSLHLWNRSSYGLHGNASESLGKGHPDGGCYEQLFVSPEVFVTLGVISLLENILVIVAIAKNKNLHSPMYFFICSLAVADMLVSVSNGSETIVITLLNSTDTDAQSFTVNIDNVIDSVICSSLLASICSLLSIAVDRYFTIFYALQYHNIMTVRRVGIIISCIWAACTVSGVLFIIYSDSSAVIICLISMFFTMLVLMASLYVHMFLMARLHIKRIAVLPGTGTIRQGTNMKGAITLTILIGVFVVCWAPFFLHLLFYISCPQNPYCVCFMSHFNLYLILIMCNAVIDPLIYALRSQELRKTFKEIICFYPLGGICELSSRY

mMC4R [3] = target: T2, mMC4R; test: CRE/β-galactosidase reporter gene bioassay, agonist activity at mMC4R; format: cell-based; settings: ligand at 100 μM, compared to maximal response generated by α-MSH
mMC5R [4] = target: T3, mMC5R (Mus musculus, UniProt P41149); test: CRE/β-galactosidase reporter gene bioassay, agonist activity at mMC5R; format: cell-based; settings: for mMC5R pharmacology in words: comparisons are to reference peptide 1
T3 sequence (P41149 whole entry): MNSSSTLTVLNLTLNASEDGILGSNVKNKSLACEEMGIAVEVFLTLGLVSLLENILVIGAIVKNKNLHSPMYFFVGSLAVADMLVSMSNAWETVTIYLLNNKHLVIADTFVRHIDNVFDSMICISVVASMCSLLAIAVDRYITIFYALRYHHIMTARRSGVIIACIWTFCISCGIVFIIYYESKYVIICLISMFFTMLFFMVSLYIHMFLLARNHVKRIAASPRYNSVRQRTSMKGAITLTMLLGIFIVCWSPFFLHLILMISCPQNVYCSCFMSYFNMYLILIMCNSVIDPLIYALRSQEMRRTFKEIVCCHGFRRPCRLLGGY

mMC3R [5] = target: T4, mMC3R (Mus musculus, UniProt P33033); test: Antagonist Schild analysis against agonist MTII at mMC3R; format: cell-based; settings: for mMC3R pharmacology class printed in Fold Diff column (Ant, SA): Ant = antagonist, SA = some stimulatory activity at 100 µM
T4 sequence (P33033 whole entry): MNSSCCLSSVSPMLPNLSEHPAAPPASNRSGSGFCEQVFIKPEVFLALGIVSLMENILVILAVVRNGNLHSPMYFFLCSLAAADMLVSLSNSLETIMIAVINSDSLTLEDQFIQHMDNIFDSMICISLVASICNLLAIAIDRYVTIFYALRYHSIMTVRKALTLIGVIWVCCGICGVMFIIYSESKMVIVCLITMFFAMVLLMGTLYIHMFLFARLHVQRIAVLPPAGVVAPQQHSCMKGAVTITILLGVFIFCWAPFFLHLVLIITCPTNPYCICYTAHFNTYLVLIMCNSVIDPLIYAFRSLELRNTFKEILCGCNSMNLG

mMC3R [6] = target: T4, mMC3R; test: cell-based; format: cell-based; settings: ligand at 100 μM, compared to maximal response generated by α-MSH
mMC1R [7] = target: T1, mMC1R; settings: read-out: mMC1R EC50, reference peptide from the literature, cited from earlier work
mMC5R [8] = target: T3, mMC5R; settings: read-out: mMC5R EC50, reference peptide from the literature, cited from earlier work
mMC3R [9] = target: T4, mMC3R; settings: read-out: mMC3R EC50, reference peptide from the literature, cited from earlier work
mMC4R [10] = target: T2, mMC4R; settings: read-out: mMC4R EC50, reference peptide from the literature, cited from earlier work

## CC(=O)N[C@@H](Cc1c[nH]cn1)C(=O)N[C@H](Cc1ccc(I)cc1)C(=O)N[C@@H](CCCNC(=N)N)C(=O)N[C@@H](Cc1csc2ccccc12)C(N)=O [Peptide 30, Ac-His-(pI)DPhe-Arg-3Bal-NH2] (Ac-H[dPhe(4-I)]R[Bta]-NH2)
mMC1R [1]
  EC50: 45 ± 14 nM
mMC4R [2]
  Kb: 10 nM
  mMC4R pharmacology class printed in Fold Diff. column (Ant, SA): SA Ant
mMC4R [3]
  mMC4R relative percentage of stimulation at 100 μM: 50%
mMC5R [4]
  EC50: 3.2 ± 0.7 nM
  mMC5R pharmacology in words: equipotent agonists; also recorded: very potent nanomolar agonist activity
mMC3R [5]
  Kb: 39.8 nM
  mMC3R pharmacology class printed in Fold Diff column (Ant, SA): SA Ant
mMC3R [6]
  mMC3R relative percentage of stimulation at 100 μM: 25%

## CC(=O)N[C@@H](Cc1c[nH]cn1)C(=O)N[C@H](Cc1ccc(-c2ccccc2)cc1)C(=O)N[C@@H](CCCNC(=N)N)C(=O)N[C@@H](Cc1csc2ccccc12)C(N)=O [Peptide 34, Ac-His-DBip-Arg-3Bal-NH2] (Ac-H[dBip]R[Bta]-NH2)
mMC1R [1]; comparisons are to reference peptide 1
  mMC1R pharmacology in words: more potent
mMC1R [1]; fold difference in EC50 vs peptide 1, negative prefix = more potent than 1
  mMC1R Fold Diff: −16
mMC1R [1]
  EC50: 9 nM and 8.9 nM
mMC1R [1]; more potent agonist than 1
  mMC1R fold difference in EC50, more potent than reference peptide 1: 16 fold
mMC4R [2]
  Kb: 20 nM
  mMC4R pharmacology class printed in Fold Diff. column (Ant, SA): SA Ant
mMC4R [3]
  mMC4R relative percentage of stimulation at 100 μM: 65%
mMC5R [4]
  EC50: 6.9 ± 0.2 nM
  mMC5R pharmacology in words: equipotent agonists
mMC3R [5]
  Kb: 316 nM
  mMC3R pharmacology class printed in Fold Diff column (Ant, SA): SA Ant
mMC3R [6]
  mMC3R relative percentage of stimulation at 100 μM: 55%

## CC(=O)N[C@@H](Cc1cccs1)C(=O)N[C@H](Cc1ccccc1)C(=O)N[C@@H](CCCNC(=N)N)C(=O)N[C@@H](Cc1c[nH]c2ccccc12)C(N)=O [Peptide 52, Ac-2Thi-DPhe-Arg-Trp-NH2] (Ac-[2Thi][dF]RW-NH2)
mMC1R [7]; ref [33]
  EC50: 200 ± 40 nM
mMC5R [8]; ref [33]
  EC50: 41 ± 13 nM
mMC3R [9]; ref [33]
  EC50: 3 ± 0.3 µM
mMC5R [4]; monosubstituted reference peptides, from literature EC50 values of Table 3
  selectivity between the mMC1R and the mMC5R: ≤ 5 fold

## Ac-DHis-DPhe-Arg-Trp-NH2 [Peptide 53]
mMC5R [8]; ref [33]
  EC50: 140 ± 20 nM
mMC3R [9]; ref [33]
  EC50: 6.2 ± 2.5 µM

## Ac-H[dF]R[1Nal]-NH2 [Peptide 38]
mMC1R [7]; ref [31]
  EC50: 730 ± 320 nM
mMC5R [8]; ref [31]
  EC50: 33 ± 4 nM
mMC3R [9]; ref [31]
  EC50: 3.5 ± 1.3 µM
mMC4R [10]; ref [31]
  EC50: 260 ± 30 nM

## Ac-H[dF]R[Bip]-NH2 [Peptide 42]
mMC1R [7]; ref [31]
  EC50: 52 ± 10 nM
mMC5R [8]; ref [31]
  EC50: 100 ± 20 nM
mMC3R [9]; ref [31]
  EC50: 13 ± 0.8 µM
mMC4R [10]; ref [31]
  EC50: 2700 ± 500 nM

## Ac-H[dF]R[Tic]-NH2 [Peptide 41]
mMC1R [7]; ref [31]
  EC50: 43 ± 13 nM
mMC5R [8]; ref [31]
  EC50: 700 ± 100 nM
mMC3R [9]; ref [31]
  EC50: 23 ± 2 µM
mMC4R [10]; ref [31]
  EC50: 8500 ± 900 nM

## Ac-H[dF]R[d2Nal]-NH2 [Peptide 40]
mMC1R [7]; ref [31]
  EC50: 130 ± 30 nM
mMC5R [8]; ref [31]
  EC50: 12.1 ± 3.3 nM
mMC3R [9]; ref [31]
  EC50: 1.6 ± 0.6 µM
mMC4R [10]; ref [31]
  EC50: 46.2 ± 7.9 nM

## Ac-H[dF]R[dBip]-NH2 [Peptide 43]
mMC1R [7]; ref [31]
  EC50: 310 ± 70 nM
mMC5R [8]; ref [31]
  EC50: 150 ± 10 nM
mMC3R [9]; ref [31]
  EC50: 16 ± 5 µM
mMC4R [10]; ref [31]
  EC50: 1500 ± 400 nM

## Ac-His-(pI)DPhe-Arg-Trp-NH2 [Peptide 45]
mMC5R [8]; ref [32]
  EC50: 1.6 ± 0.4 nM

## Ac-His-DBip-Arg-Trp-NH2 [Peptide 47]
mMC1R [7]; ref [32]
  EC50: 28 ± 11 nM
mMC5R [8]; ref [32]
  EC50: 11.6 ± 3.9 nM
mMC3R [9]; ref [32]
  EC50: 2.1 ± 0.7 µM
mMC4R [10]; ref [32]
  EC50: 68 ± 16 nM

## Ac-His-DNal(1’)-Arg-Trp-NH2 [Peptide 46]
mMC1R [7]; ref [32]
  EC50: 360 ± 60 nM
mMC5R [8]; ref [32]
  EC50: 51 ± 4 nM
mMC3R [9]; ref [32]
  EC50: 4.1 ± 0.1 µM
mMC4R [10]; ref [32]
  EC50: 300 ± 70 nM

## Ac-His-DPhe-Arg-3Bal-NH2 [Peptide 44]
mMC1R [7]; ref [31]
  EC50: 80 ± 9 nM
mMC5R [8]; ref [31]
  EC50: 48 ± 4 nM
mMC3R [9]; ref [31]
  EC50: 3.7 ± 1.4 µM
mMC4R [10]; ref [31]
  EC50: 140 ± 20 nM

## Ac-His-DPhe-Arg-Phe-NH2 (Ac-H[dF]RF-NH2; SMILES CC(=O)N[C@@H](Cc1c[nH]cn1)C(=O)N[C@H](Cc1ccccc1)C(=O)N[C@@H](CCCNC(=N)N)C(=O)N[C@@H](Cc1ccccc1)C(N)=O) [Peptide 37]
mMC1R [7]; ref [31]
  EC50: 530 ± 240 nM
mMC5R [8]; ref [31]
  EC50: 890 ± 110 nM
mMC3R [9]; ref [31]
  EC50: 27 ± 7 µM
mMC4R [10]; ref [31]
  EC50: 7800 ± 2500 nM

## Ac-Phe-DPhe-Arg-Trp-NH2 (Ac-F[dF]RW-NH2; SMILES CC(=O)N[C@@H](Cc1ccccc1)C(=O)N[C@H](Cc1ccccc1)C(=O)N[C@@H](CCCNC(=N)N)C(=O)N[C@@H](Cc1c[nH]c2ccccc12)C(N)=O) [Peptide 48]
mMC1R [7]; ref [33]
  EC50: 500 ± 100 nM
mMC5R [8]; ref [33]
  EC50: 140 ± 5 nM
mMC3R [9]; ref [33]
  EC50: 12 ± 2 µM
mMC4R [10]; ref [33]
  EC50: 71 ± 14 nM

## Octanoyl-His-DPhe-Arg-Trp-NH2 [Peptide 54]
mMC5R [8]; ref [34]
  EC50: 0.79 ± 0.25 nM
mMC3R [9]; ref [34]
  EC50: 0.004 ± 0.0007 µM
